Results published in patent publication US6750228B1, “Aromatic sulfone hydroxamic acid metalloprotease inhibitor” (priority 1997, dated 2004).
Like-named read-outs stand apart in the source and are kept apart here.

Legend:
Assay in all cases: biochemical
[1] = target: T1, MMP-13 (Homo sapiens, UniProt P45452); conditions: read-out: MMP-13 IC50
T1 construct: made in house; host or cells: baculovirus / insect cells
Description: (§1) The compounds prepared in the manner described in the Examples above were assayed for activity by an in vitro assay. […] Briefly, 4-aminophenylmercuric acetate (APMA) or trypsin-activated MMPs were incubated with various concentrations of the inhibitor compound at room temperature for 5 minutes.
(§2) The expressed enzyme was purified first over a heparin agarose column and then over a chelating zinc chloride column. The proenzyme was activated by APMA for use in the assay.
(§3) MMP-1 expressed in transfected HT-1080 cells was provided by Dr. Harold Welgus of Washington University, St. Louis, Mo. The enzyme was also activated using APMA and was then purified over a hydroxamic acid column. Dr. Welgus also provided transfected HT-1080 cells that expressed MMP-9. Transfected cells that expressed MMP-2 were provided by Dr. Gregory Goldberg, also of Washington University. Studies with MMP-7 were carried out at pH 7.5 in the presence of 0.02% 2-mercaptoethanol using conditions otherwise similar to those used for the other enzymes. The enzyme was obtaind from a hMMP-7-expressing E. coli clone that was a gift of Dr. Steven Shapiro of Washington University, St. Louis, Mo. Further specifics for preparation and use of these enzymes can be found in the scientific literature describing these enzymes. See, for example, Enzyme Nomenclature, Academic Press, San Diego, Calif. […] The enzyme substrate is a methoxycoumarin-containing polypeptide having the following sequence:
(§4) MCA-ProLeuGlyLeuDpaAlaArgNH2, wherein MCA is methoxycoumarin and Dpa is 3-(2,4-dinitrophenyl)-L-2,3-diaminopropionyl alanine.
(§5) The buffer used for assays contained 100 mM Tris-HCl, 100 mM NaCl, 10 mM CaCl2 and 0.05 percent polyethyleneglycol (23) lauryl ether at a pH value of 7.5. Assays were carried out at room temperature, and dimethyl sulfoxide (DMSO) at a final concentration of 1 percent was used to dissolve inhibitor compound.
(§6) The assayed inhibitor compound in DMSO/buffer solution was compared to an equal amount of DMSO/buffer with no inhibitor as control using Microfluor White Plates (Dynatech). The inhibitor or control solution was maintained in the plate for 10 minutes and the substrate was added to provide a final concentration of 4 μM.
(§7) Inhibition was measured as a reduction in fluorescent intensity as a function of inhibitor concentration, using a Perkin Elmer L550 plate reader. The IC50 values were calculated from those values. The results are set forth in the Inhibition Table A, below, reported in terms of IC50 to three significant figures, where appropriate.

[2] = target: T2, MMP-1 (Homo sapiens, UniProt P03956); conditions: read-out: MMP-1 IC50
T2 construct: made in house; host or cells: transfected HT-1080 cells (provided by Dr. Harold Welgus, Washington University)
T2 sequence (P03956 100-469): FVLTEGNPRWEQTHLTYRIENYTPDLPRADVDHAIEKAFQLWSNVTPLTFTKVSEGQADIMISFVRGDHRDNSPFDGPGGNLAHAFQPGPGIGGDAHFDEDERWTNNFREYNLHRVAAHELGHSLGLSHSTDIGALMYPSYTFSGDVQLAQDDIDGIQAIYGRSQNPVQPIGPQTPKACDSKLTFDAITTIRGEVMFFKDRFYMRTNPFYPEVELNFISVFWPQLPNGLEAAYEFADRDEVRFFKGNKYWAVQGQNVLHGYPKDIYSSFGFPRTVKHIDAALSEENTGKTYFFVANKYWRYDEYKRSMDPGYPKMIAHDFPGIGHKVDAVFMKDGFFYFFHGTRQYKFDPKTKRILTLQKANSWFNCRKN
Description: as §1, §2, §3, §4, §5, §6, §7

[3] = target: T3, MMP-2 (Homo sapiens, UniProt P08253); conditions: read-out: MMP-2 IC50
T3 construct: made in house; provided by Dr. Gregory Goldberg, Washington University
T3 sequence (P08253 110-660): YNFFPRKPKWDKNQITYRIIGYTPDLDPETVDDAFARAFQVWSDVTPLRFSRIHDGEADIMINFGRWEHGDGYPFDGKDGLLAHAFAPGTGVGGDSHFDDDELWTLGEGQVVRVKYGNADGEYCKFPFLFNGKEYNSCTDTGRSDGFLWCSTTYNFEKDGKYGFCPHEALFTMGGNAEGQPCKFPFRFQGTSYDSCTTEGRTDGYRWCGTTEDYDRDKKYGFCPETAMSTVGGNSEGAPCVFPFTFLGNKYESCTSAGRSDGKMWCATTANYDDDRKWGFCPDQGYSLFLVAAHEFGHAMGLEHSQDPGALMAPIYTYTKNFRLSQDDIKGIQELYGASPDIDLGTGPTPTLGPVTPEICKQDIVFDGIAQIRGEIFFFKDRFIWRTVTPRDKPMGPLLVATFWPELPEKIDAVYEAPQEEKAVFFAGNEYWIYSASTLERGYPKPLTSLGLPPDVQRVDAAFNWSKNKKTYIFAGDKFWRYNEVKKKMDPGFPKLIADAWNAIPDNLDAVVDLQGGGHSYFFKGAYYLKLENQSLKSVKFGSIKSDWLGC
Description: as §1, §2, §3, §4, §5, §6, §7

[4] = recombinant human MMP-13, MCA peptide substrate 4 μM, pH 7.5, room temperature
[5] = recombinant human MMP-1, MCA peptide substrate 4 μM, pH 7.5, room temperature
[6] = recombinant human MMP-2, MCA peptide substrate 4 μM, pH 7.5, room temperature

Compound	IC50 [1, 4] [µM]	IC50 [2, 5] [µM]	IC50 [3, 6] [µM]	IC50 [1] [µM]	IC50 [2] [µM]	IC50 [3] [µM]
O=C(c1ccc(F)cc1)C1CCN(c2ccc(S(=O)(=O)C3(C(=O)NO)CCSCC3)cc2)CC1 [Example 152]	–	–	–	0.002	> 10	0.059
COc1ccccc1C1CCN(c2ccc(S(=O)(=O)C3(C(=O)NO)CCSCC3)cc2)CC1 [Example 153]	–	–	–	0.05	> 10	5
CN(CC1CC1)C(=O)C1CCN(c2ccc(S(=O)(=O)C3(C(=O)NO)CCSCC3)cc2)CC1 [Example 154]	0.018	> 10	3.7	–	–	–
O=C(NO)C1(S(=O)(=O)c2ccc(N3CCCC3)cc2)CCSCC1 [Example 155]	0.13	> 10	0.24	–	–	–
COc1ccc(Oc2ccc(S(=O)(=O)C3(C(=O)NO)CCS(=O)(=O)CC3)cc2)cc1 [Example 156]	–	–	–	0.0022	> 10	0.00045
O=C(NO)C1(S(=O)(=O)c2ccc(Oc3ccc(OC(F)(F)F)cc3)cc2)CCS(=O)(=O)CC1 [Example 157]	0.0005	> 10	0.0002	–	–	–
O=C(NO)C1(S(=O)(=O)c2ccc(Oc3ccncc3)cc2)CCS(=O)(=O)CC1 [Example 160]	0.3	> 10	0.09	–	–	–
O=C(c1ccc(F)cc1)C1CCN(c2ccc(S(=O)(=O)C3(C(=O)NO)CCS(=O)(=O)CC3)cc2)CC1 [Example 161]	–	–	–	0.0326	> 10	0.9
CC1CC(C)CN(C(=O)C2CCN(c3ccc(S(=O)(=O)C4(C(=O)NO)CCSCC4)cc3)CC2)C1 (stereo not drawn) [Example 162]	–	–	–	0.0278	> 10	7
O=C(NO)C1(S(=O)(=O)c2ccc(Oc3ccc(OC(F)(F)F)cc3)cc2)CCN(S(=O)(=O)c2ccccc2)CC1 [Example 194]	0.0003	> 7.3	< 0.0001	–	–	–
O=C(NO)C1(S(=O)(=O)c2ccc(Oc3ccc(OC(F)(F)F)cc3)cc2)CCN(S(=O)(=O)Cc2ccccc2)CC1 [Example 195]	0.001	> 10	0.0002	–	–	–
O=C(NO)C1(S(=O)(=O)c2ccc(Oc3ccc(OC(F)(F)F)cc3)cc2)CCN(S(=O)(=O)c2cccc(C(F)(F)F)c2)CC1 [Example 196]	0.0016	> 10	< 0.0001	–	–	–
O=C(NO)C1(S(=O)(=O)c2ccc(Oc3ccc(OC(F)(F)F)cc3)cc2)CCN(S(=O)(=O)C(F)(F)F)CC1 [Example 197]	0.0027	> 10	< 0.0001	–	–	–
O=C(NO)C1(S(=O)(=O)c2ccc(Oc3ccc(OC(F)(F)F)cc3)cc2)CCN(C(=S)NCCN2CCOCC2)CC1 [Example 199]	0.0002	3	< 0.0001	–	–	–

Now from value to molecule, other results behind:

IC50 [1, 4] [µM]	IC50 [2, 5] [µM]	IC50 [3, 6] [µM]	Compound	IC50 [1] [µM]	IC50 [2] [µM]	IC50 [3] [µM]
0.0035	> 10	0.44	O=C(NO)C1(S(=O)(=O)c2ccc(N3CCC(OCc4ccc(F)cc4)CC3)cc2)CCOCC1 [Example 164]	–	–	–
0.003	> 10	0.0485	O=C(NO)C1(S(=O)(=O)c2ccc(N3CCC(OCc4ccccc4)CC3)cc2)CCOCC1 [Example 165]	–	–	–
0.0327	> 10	0.24	CCOC1CCN(c2ccc(S(=O)(=O)C3(C(=O)NO)CCOCC3)cc2)CC1 [Example 166]	–	–	–
0.05	> 10	0.285	CCCOC1CCN(c2ccc(S(=O)(=O)C3(C(=O)NO)CCOCC3)cc2)CC1 [Example 168]	–	–	–
0.0024	> 10	0.2	O=C(NO)C1(S(=O)(=O)c2ccc(N3CCC(OCc4ccc(Cl)cc4)CC3)cc2)CCOCC1 [Example 170]	–	–	–
0.0038	> 10	0.16	Cc1ccc(COC2CCN(c3ccc(S(=O)(=O)C4(C(=O)NO)CCOCC4)cc3)CC2)cc1 [Example 172]	–	–	–
0.0067	3.4	0.33	O=C(NO)C1(S(=O)(=O)c2ccc(N3CCC(OCc4cccc(OC(F)(F)F)c4)CC3)cc2)CCOCC1 [Example 173]	–	–	–
0.0235	> 10	0.8	O=C(NO)C1(S(=O)(=O)c2ccc(N3CCC(OCc4ccccc4C(F)(F)F)CC3)cc2)CCOCC1 [Example 174]	–	–	–
0.0025	> 10	0.29	O=C(NO)C1(S(=O)(=O)c2ccc(N3CCC(OCc4ccc(OC(F)(F)F)cc4)CC3)cc2)CCOCC1 [Example 175]	–	–	–
0.004	> 10	0.25	O=C(NO)C1(S(=O)(=O)c2ccc(N3CCC(OCc4ccc(Cl)c(Cl)c4)CC3)cc2)CCOCC1 [Example 176]	–	–	–
0.0181	> 10	0.325	COc1cc(COC2CCN(c3ccc(S(=O)(=O)C4(C(=O)NO)CCOCC4)cc3)CC2)cc(OC)c1 [Example 178]	–	–	–
0.0206	> 10	0.17	O=C(NO)C1(S(=O)(=O)c2ccc(N3CCC(OCc4ccc(F)c(F)c4)CC3)cc2)CCOCC1 [Example 179]	–	–	–
0.0011	> 10	0.0418	N#Cc1ccc(COC2CCN(c3ccc(S(=O)(=O)C4(C(=O)NO)CCOCC4)cc3)CC2)cc1 [Example 180]	–	–	–
0.19	> 10	2.3	O=C(NO)C1(S(=O)(=O)c2ccc(N3CCC(OCc4ccccc4-c4ccccc4)CC3)cc2)CCOCC1 [Example 181]	–	–	–
0.0022	> 10	0.0326	O=C(NO)C1(S(=O)(=O)c2ccc(N3CCC(Oc4ccccc4)CC3)cc2)CCOCC1 [Example 185, N-Hydroxy-4[[[4-(4-phenoxy)piperidyl]phenyl]sulfonyl]-1-tetrahydropyrancarboxamide]	–	–	–
0.01	> 10	0.6	Cc1cc(C)cc(OC2CCN(c3ccc(S(=O)(=O)C4(C(=O)NO)CCOCC4)cc3)CC2)c1 [Example 187]	–	–	–
0.007	> 10	0.235	O=C(Nc1cccc(C(F)(F)F)c1)OC1CCN(c2ccc(S(=O)(=O)C3(C(=O)NO)CCOCC3)cc2)CC1 [Example 188, N-Hydroxy-4[[[4-[(3-trifluoromethyl)phenylcarbamoxy]piperidyl]phenyl]sulfonyl]-1-tetrahydropyrancarboxamide]	–	–	–
0.0047	> 10	0.136	CCOc1ccc(NC(=O)OC2CCN(c3ccc(S(=O)(=O)C4(C(=O)NO)CCOCC4)cc3)CC2)cc1 [Example 190]	–	–	–
0.0035	> 10	0.0251	O=C(Nc1ccc(F)cc1)OC1CCN(c2ccc(S(=O)(=O)C3(C(=O)NO)CCOCC3)cc2)CC1 [Example 191]	–	–	–
